From publication PMC6254361, “The properties of Msh2–Msh6 ATP binding mutants suggest a signal amplification mechanism in DNA mismatch repair” (The Journal of Biological Chemistry, 2018)

Biological target: T1, Msh2–Msh6 (Saccharomyces cerevisiae, UniProt P25847+Q03834, P25847:K694R)
T1 sequence (P25847 1-964 K694R): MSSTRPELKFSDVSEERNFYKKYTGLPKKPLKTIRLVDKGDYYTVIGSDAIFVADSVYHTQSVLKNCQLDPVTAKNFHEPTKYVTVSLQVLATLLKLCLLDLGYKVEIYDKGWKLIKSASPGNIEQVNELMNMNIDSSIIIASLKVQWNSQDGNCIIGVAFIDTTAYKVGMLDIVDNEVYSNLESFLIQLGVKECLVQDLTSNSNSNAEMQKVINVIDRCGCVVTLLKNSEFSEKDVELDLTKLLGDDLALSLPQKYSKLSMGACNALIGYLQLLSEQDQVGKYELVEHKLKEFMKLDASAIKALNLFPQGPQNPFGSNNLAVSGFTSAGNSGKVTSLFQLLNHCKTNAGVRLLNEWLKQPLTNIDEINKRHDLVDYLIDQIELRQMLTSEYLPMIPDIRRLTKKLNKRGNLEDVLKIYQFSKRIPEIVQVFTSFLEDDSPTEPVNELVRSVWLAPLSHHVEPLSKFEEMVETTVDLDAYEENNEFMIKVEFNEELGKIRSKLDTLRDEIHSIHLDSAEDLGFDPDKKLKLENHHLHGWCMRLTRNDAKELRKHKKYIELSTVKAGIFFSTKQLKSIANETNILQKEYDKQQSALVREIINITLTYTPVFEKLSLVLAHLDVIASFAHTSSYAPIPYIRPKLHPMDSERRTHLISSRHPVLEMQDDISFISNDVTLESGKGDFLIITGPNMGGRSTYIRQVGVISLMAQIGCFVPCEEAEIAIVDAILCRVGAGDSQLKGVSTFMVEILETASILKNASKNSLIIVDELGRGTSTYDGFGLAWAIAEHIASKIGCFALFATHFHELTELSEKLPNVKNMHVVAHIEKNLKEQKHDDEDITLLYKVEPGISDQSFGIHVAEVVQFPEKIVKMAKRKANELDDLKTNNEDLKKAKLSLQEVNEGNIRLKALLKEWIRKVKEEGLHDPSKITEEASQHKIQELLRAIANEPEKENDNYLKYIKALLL
T1 sequence (Q03834 1-1242): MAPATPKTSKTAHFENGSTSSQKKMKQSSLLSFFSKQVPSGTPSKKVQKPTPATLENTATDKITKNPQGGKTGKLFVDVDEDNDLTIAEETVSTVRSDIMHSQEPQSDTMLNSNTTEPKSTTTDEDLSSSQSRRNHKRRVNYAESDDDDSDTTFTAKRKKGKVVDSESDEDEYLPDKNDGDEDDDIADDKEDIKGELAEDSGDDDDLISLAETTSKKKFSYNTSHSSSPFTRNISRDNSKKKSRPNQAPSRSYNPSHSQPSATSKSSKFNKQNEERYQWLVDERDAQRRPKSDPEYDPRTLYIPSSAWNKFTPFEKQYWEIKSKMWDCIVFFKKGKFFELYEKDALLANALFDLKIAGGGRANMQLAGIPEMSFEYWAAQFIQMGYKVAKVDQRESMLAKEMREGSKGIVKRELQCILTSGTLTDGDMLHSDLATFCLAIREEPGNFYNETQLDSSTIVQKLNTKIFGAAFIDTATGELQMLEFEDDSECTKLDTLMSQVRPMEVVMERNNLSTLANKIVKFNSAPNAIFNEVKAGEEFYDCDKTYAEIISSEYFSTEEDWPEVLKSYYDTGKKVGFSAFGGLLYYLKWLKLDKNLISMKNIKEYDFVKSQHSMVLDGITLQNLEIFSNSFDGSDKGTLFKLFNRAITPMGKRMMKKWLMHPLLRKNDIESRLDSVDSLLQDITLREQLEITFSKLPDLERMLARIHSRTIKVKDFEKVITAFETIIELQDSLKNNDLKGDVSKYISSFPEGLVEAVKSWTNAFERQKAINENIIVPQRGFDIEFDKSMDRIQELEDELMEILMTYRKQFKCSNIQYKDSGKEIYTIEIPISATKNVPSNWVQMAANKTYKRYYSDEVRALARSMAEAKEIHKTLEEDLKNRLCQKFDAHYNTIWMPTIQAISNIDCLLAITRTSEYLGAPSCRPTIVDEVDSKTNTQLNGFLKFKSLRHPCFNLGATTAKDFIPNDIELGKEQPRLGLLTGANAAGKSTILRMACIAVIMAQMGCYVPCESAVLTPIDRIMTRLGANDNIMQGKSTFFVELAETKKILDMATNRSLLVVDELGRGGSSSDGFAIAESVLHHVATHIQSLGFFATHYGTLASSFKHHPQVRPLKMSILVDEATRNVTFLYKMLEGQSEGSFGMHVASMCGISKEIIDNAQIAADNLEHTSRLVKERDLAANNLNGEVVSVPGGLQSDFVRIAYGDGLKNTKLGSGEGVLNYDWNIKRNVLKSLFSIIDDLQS
Assay: UV cross-linking of [γ-32P]ATP, SDS-PAGE, phosphorimaging
Assay type: binding
Details: labelled compound; no Mg2+, EDTA, pH 8, on ice; Msh2 site at 60 μM ATP, Msh6 site at 1 μM ATP

Nc1ncnc2c1ncn2[C@@H]1O[C@H](COP(=O)(O)OP(=O)(O)OP(=O)(O)O)[C@@H](O)[C@H]1O [ATP]
relative ATP binding: Msh2(K694A)–Msh6 and Msh2(K694R)–Msh6 mutant complexes were defective for ATP binding to both
